This note sets out measurements from patent US20260021296A1, “ION[…]” (KANEKA CORPORATION, priority 2023, published 2026).

A short description of this data set: Evaluation of skin permeability of drug by iontophoresis in a vertical Franz cell. In kind it is in vitro ADME, hairless rat (HWY/Slc). The protocol: The excised abdominal skin of a depilated male hairless rat (HWY/Slc, SPF, 5 weeks old) was punched into a 3.2 cm diameter circle and set in a vertical Franz cell. To the donor chamber of the Franz cell, 1.5 mL of a 0.5 wt % lanreotide acetate solution was added as a drug 31, and a zinc plate (0.5 cm×2 cm×0.5 mm) was immersed therein to form an anode 21. PBS was used as a receptor solution in the receptor chamber, and a silver/silver chloride rod (11 cm in length, 1 mm q in diameter) was inserted from the sampling port to form a cathode 22. The zinc plate and the silver/silver chloride rod were connected to the same power supply 10 and control unit 50 as those used in the skin irritability evaluation described above.
Example 4: A pulse current with a frequency of […], a period of 100 ms, a duty ratio of 50%, a rectangular waveform, and a current density of 0.35 mA/cm^2 was applied.
Comparative Example 6: Instead of a pulse current, a current with a substantially constant current value and a current density of 0.35 mA/cm^2 was applied.
Comparative Example 7: No current was applied.
In order to match the total time of current application (total amount of applied current), the current was applied for 6 hours in Example 4 and for 3 hours in Comparative Example 6. Example 4 and Comparative Examples 6 to 7 were all conducted with n=3.
Three items were evaluated: the cumulative amount of drug permeated, the permeation rate, and the relationship between the cumulative permeation amount and the quantity of electricity.
The receptor solution was sampled every hour, the amount of drug permeated through the skin was quantified by high-performance liquid chromatography (HPLC), and the above three items were evaluated with time. In Comparative Example 6, even after the end of the current application, the sampling was continued until 6 hours elapsed from the start of the test, as in Example 4 and Comparative Example 7. The HPLC measurement conditions are shown below.

Turning to `CC(C)[C@@H]1NC(=O)[C@H](CCCCN)NC(=O)[C@@H](Cc2c[nH]c3ccccc23)NC(=O)[C@H](Cc2ccc(O)cc2)NC(=O)[C@@H](NC(=O)[C@H](N)Cc2ccc3ccccc3c2)CSSC[C@@H](C(=O)N[C@H](C(N)=O)[C@@H](C)O)NC1=O` [lanreotide acetate], the “time from start of test at which permeation of the drug through the skin was observed” value runs as follows: (Comparative Example 6: substantially constant current 0.35 mA/cm^2, applied 3 hours, 0.5 wt % solution, n=3) “about 2 hours”; (Example 4: pulse current 5 Hz, duty ratio 50%, rectangular waveform, 0.35 mA/cm^2, applied 6 hours, 0.5 wt % solution, n=3) “about 2 hours”. In addition, the “drug skin permeability (rank among current conditions, FIGS. 8 and 9)” value is, setting by setting: (Comparative Example 7: no current applied) “lowest”; (Example 4: pulse current 5 Hz, duty ratio 50%, 0.35 mA/cm^2) “highest”. Besides, the “time from start of test until which permeation of the drug through the skin was not observed” value (Comparative Example 7: no current applied, 0.5 wt % solution, n=3) was at least 4 h. For the same compound, the “cumulative permeation amount of Example 4 relative to Comparative Example 6 at the same quantity of electricity (final)” value (pulse current (Example 4) versus constant current (Comparative Example 6), 0.35 mA/cm^2, FIG. 10) was at least 5 times.
